Measured values reported in the Biogen ADME set (Fang et al. 2023).
≈ marks a conversion by molar mass, not a printed value.

Settings: for aqueous solubility: pH 6.8

Compound	aqueous solubility [µg/mL]	MDR1-MDCK efflux ratio	intrinsic clearance, human liver microsomes [mL/min/kg]	intrinsic clearance, rat liver microsomes [mL/min/kg]	fraction unbound, human plasma	fraction unbound, rat plasma
Cn1cc(-c2nc(C(=O)Nc3cccnc3-n3cncn3)cs2)cn1	1.92 (≈ 5.43 µM)	–	–	–	–	–
O=C(CC/C=C/c1ccccc1)Nc1ccccc1N1CCOC1=O	–	2.45	32.6	776	–	–
O=C(N[C@H](CO)CC1CCCCC1)c1cccc(-c2cnccn2)c1	–	–	198	4260	–	–
N#Cc1ccc(CNc2cnc3ccccc3c2)o1	–	0.343	187	238	–	–
Cc1ccc(Cn2nc(C(=O)N[C@@H]3C(C)(C)[C@@H]4CC[C@@]3(C)C4)cc2-c2ccc(Cl)c(C)c2)cc1	1.29 (≈ 2.71 µM)	0.636	181	676	–	–
C#CCNC(=O)Cc1coc(-c2ccccc2)n1	–	0.719	26.9	142	–	–
O=C1CSc2ccc(C(=O)Nc3cc(C4CC4)n[nH]3)cc2N1	4.31 (≈ 13.7 µM)	–	8.23	241	–	–
Cc1csc(NC(=O)CCc2ccncc2)n1	38.1 (≈ 154 µM)	0.876	≤ 4.74	45.3	–	–
C#CCN1CCC(c2nc(Cc3noc(C)n3)no2)CC1	49.5 (≈ 172 µM)	0.732	≤ 4.74	12.8	–	–
CNC(=O)Cc1csc(-c2ccc(C)cc2)n1	4.06 (≈ 16.5 µM)	0.708	108	1010	–	–
COc1ccccc1C(=O)CSc1nncn1C1CC1	–	1.3	24.6	463	–	–
CC(=O)N1CCCN(C(=O)Nc2ccc(N(C)C3CCCCC3)c(F)c2)CC1	67.7 (≈ 173 µM)	28.2	103	924	–	–
Cn1cc(-c2ccnc(/C=C/c3ccc(F)cc3Br)n2)cn1	0.68 (≈ 1.89 µM)	0.658	–	–	–	–
O=C(Nc1ccccc1)Nc1ccc(-c2ccc(C(=O)[C@H]3CCC[C@@H]3C(=O)O)cc2)cc1	–	5.96	11.3	23.8	–	–
Cn1cncc1CCNC(=O)[C@H]1CC1(C)C	28.8 (≈ 130 µM)	8.23	≤ 4.74	≤ 10.7	–	–
N#Cc1ccc(COc2cccc(C3CCN(Cc4nc5ccc(C(=O)O)cc5n4C[C@@H]4CCO4)CC3)n2)c(F)c1	–	35.5	–	–	0.0253	0.0205
CN1CCC(N(Cc2cccnc2)C(=O)NCCCc2ccccc2)CC1	–	131	6.28	1140	–	–
CS(=O)(=O)NC1CCN(C(=O)NCCc2ccc(F)cc2)CC1	67.9 (≈ 198 µM)	35.3	≤ 4.74	61.4	–	–
CCCc1cc(N2CCc3c(nc(C4CC4)n3C)C2)n2ncnc2n1	53.3 (≈ 158 µM)	38.3	9.63	179	0.476	0.244
Cc1n[nH]c(C)c1CCCN(C)c1cncc(C(=O)N(C)C)n1	–	93.7	87.4	529	–	–
Cc1ccc2c(c1)C(=O)CC1(CCN(C(=O)c3ccc4nc(C)cc(O)c4c3)CC1)O2	20.2 (≈ 48.5 µM)	30.1	18.4	119	–	–
CONC(=O)c1cn(-c2ccc(Br)cc2)cn1	63.6 (≈ 215 µM)	–	≤ 4.74	463	–	–
CC(C)C(=O)N1CCn2nc(CNC3CCc4ccccc4CC3)cc2C1	–	27.1	≤ 4.74	205	–	–
COCCc1nc(-c2ccccc2-c2ccccc2)n(CCO)n1	26.4 (≈ 81.6 µM)	15.9	24.5	182	–	–
Cc1ccc(C(=O)NCCc2csc(C)n2)cn1	40.4 (≈ 155 µM)	0.918	7.45	11.3	–	–
CCc1cc(CN(C)c2nccc(-c3ccc(C)nc3C)n2)on1	36.4 (≈ 113 µM)	0.673	89.4	1690	–	–
Cc1nnc(NCc2cccnc2)c2ccccc12	29.9 (≈ 120 µM)	6.54	5.21	51.4	–	–
COc1ccc(NS(=O)(=O)c2ccc3c(c2)n(C)c(=O)n3C)cc1	2.05 (≈ 5.9 µM)	–	–	–	–	–
